Measurements: US20170334959A1 (priority 2015, published 2017)
pIC50: −log10 of the molar value. Entries after “also recorded” stand apart in the source; their conditions may differ. No end group written: not given here.

Columns and labels:
human Nav1.6 = human Nav1.6 (Homo sapiens, UniProt Q9UQD0); format: cell-based
human Nav1.7 = human Nav1.7 (Homo sapiens, UniProt Q15858, W1161R); format: cell-based; conditions: read-out: Nav1.7 IC50
[1] = system: CFA-induced thermal hyperalgesia; set-up: species or system mice; conditions: mouse, in vivo
[2] = system: CFA-induced tactile allodynia; set-up: species or system mice; conditions: mouse, in vivo
[3] = system: formalin-induced flinching (injury-induced pain); conditions: rat, in vivo
[4] = system: carrageenan-induced thermal hyperalgesia; set-up: species or system mice; conditions: mouse, in vivo
[5] = system: acute thermal pain (tail withdrawal latency); conditions: in vivo
[6] = system: thermal withdrawal latency; set-up: species or system mice; conditions: mouse, in vivo
[7] = system: acute thermal pain (hot plate latency); conditions: in vivo
[8] = system: acute and inflammatory pain; conditions: in vivo; cited from earlier work
isolated nerves = conditions: cited from earlier work

Chain of human Nav1.6 (Q9UQD0 whole entry): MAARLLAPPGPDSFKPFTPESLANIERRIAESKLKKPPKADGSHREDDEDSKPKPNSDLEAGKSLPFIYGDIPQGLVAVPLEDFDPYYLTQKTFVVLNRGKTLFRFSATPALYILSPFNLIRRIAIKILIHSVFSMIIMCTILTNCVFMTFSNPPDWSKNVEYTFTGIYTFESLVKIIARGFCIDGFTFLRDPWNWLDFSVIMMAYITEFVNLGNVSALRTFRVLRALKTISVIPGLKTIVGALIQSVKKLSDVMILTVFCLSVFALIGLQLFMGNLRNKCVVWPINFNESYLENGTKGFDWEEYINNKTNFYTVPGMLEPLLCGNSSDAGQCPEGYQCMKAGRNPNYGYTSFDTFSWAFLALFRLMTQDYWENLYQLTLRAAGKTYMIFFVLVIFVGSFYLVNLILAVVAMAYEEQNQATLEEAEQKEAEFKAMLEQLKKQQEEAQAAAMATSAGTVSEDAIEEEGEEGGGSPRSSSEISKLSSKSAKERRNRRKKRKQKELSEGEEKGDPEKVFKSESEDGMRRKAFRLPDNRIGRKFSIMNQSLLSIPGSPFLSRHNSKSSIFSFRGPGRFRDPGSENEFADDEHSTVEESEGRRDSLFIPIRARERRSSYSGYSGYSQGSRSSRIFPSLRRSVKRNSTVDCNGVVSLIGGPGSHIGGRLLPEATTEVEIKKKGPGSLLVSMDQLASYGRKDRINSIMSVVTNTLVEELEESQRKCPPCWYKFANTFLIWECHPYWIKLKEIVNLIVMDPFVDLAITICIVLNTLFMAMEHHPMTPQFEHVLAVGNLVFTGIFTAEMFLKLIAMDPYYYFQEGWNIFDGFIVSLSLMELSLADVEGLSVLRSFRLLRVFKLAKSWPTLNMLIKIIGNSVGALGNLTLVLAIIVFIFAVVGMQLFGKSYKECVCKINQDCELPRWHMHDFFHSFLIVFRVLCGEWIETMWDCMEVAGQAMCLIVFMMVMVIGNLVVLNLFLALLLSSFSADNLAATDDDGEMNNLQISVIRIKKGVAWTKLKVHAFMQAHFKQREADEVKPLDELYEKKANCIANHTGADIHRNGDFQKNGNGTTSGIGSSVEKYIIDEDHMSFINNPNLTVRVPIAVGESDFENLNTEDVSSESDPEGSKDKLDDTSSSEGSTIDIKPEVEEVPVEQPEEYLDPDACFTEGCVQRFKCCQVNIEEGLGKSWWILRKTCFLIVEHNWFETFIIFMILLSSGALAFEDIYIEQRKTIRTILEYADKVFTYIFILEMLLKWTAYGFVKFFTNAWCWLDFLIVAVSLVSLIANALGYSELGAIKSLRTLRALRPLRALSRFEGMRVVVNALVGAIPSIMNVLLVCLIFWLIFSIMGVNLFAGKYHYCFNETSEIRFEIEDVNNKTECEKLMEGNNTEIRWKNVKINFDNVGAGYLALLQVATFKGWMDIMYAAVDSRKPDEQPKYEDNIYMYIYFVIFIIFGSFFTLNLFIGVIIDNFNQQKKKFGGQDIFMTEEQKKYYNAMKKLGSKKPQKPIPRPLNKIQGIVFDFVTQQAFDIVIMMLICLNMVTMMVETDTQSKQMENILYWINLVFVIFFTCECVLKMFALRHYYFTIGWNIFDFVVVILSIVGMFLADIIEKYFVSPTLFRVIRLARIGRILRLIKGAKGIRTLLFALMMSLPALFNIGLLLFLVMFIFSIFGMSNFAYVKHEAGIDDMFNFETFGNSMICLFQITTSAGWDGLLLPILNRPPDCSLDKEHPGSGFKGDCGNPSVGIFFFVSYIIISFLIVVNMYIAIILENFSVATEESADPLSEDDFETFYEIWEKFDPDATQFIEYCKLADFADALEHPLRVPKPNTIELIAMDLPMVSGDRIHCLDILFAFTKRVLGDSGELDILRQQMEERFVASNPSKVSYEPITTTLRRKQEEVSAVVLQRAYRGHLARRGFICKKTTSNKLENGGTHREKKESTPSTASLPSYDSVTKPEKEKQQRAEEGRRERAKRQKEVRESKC

Row | Substance | selectivity for Nav1.7 compared to recombinant Protoxin-II (human Nav1.6) | pIC50 (human Nav1.7) | also measured
1 | Ac-QCQKWMQTCDAERKCCEGFSCTLWCKKKLW-NH2 [(-GP) N-Ac-NV1D2974-NH2] | improved selectivity | – | –
2 | Ac-QCQKWMQTCDRERKCCEGFVCTLWCRKKLW-NH2 [(-GP) N-Ac-NV1D3034-NH2] | improved selectivity | – | –
3 | GPACQKWMQTCDANRKCCEGFSCRLWCKKKLW-OH (cysteine pairing not given here) [NV1D3587] | improved selectivity | – | –
4 | GPACQKWMQTCDRNRKCCEGFVCTLWCRKKLW-OH (cysteine pairing not given here) [NV1D3541] | improved selectivity | – | –
5 | GPCCNCSSKWCRDHSRCCGRGSAPAPAPAPAPAPAPAPAPAPGSQCQKWMQTCDAERKCCEGFVCRLWCKKKLW [NV1D3260] | – | 7.24 | –
6 | GPCCNCSSKWCRDHSRCCGRGSAPAPAPAPAPAPAPAPAPAPGSQCQKWMQTCDRERKCCEGFVCTLWCRKKLW [NV1D3793] | – | 7.19 | –
7 | GPCCNCSSKWCRDHSRCCGRGSAPAPAPAPAPGSQCQKWMQTCDAERKCCEGFVCRLWCKKKLW [NV1D3256] | – | 7.25 | –
8 | GPCCNCSSKWCRDHSRCCGRGSGGGGSAPAPAPAPAPAPAPAPAPAPGGGGSGSQCQKWMQTCDRERKCCEGFVCTLWCRKKLW [NV1D3830] | – | 7.05 | –
9 | GPCCNCSSKWCRDHSRCCGSAPAPAPAPAPAPAPAPAPAPGSQCQKWMQTCDAERKCCEGFVCRLWCKKKLW [NV1D3262] | – | 7.05 | –
10 | GPCCNCSSKWCRDHSRCCGSAPAPAPAPAPAPAPAPAPAPGSQCQKWMQTCDRERKCCEGFVCTLWCRKKLW [NV1D3795] | – | 7.00 | –
11 | GPCCNCSSKWCRDHSRCCGSAPAPAPAPAPGSQCQKWMQTCDRERKCCEGFVCTLWCRKKLW [NV1D3796] | – | 6.96 | –
12 | GPCRTIGPSVCAPAPAPAPAPAPAPAPAPAPQCQKWMQTCDRERKCCEGFVCTLWCRKKLW [NV1D3832] | – | 7.05 | –
13 | GPGWCGDPGATCGKLRLYCCSGFCDAYTKTCKDKSSAGGGGSAPAPAPAPAPAPAPAPAPAPAPAPAPAPAPGGGGSQCQKWMQTCDRERKCCEGFVCTLWCRKKLW [NV1D3824] | – | 6.96 | –
14 | GPGWCGDPGATCGKLRLYCCSGFCDSYTKTCKDKSSAGGGGSAPAPAPAPAPAPAPAPAPAPAPAPAPAPAPGGGGSQCQKWMQTCDRERKCCEGFVCTLWCRKKLW [NV1D3822] | – | 7.13 | –
15 | GPQCQDWMQTCDRERDCCEGFVCTLWCRKKLW-OH (cysteine pairing not given here) [NV1D3379] | – | 7.50 | –
16 | GPQCQKWMQSCDRERKCCEGFVCTLWCRKKLW-OH (cysteine pairing not given here) [NV1D3359] | improved selectivity | – | –
17 | GPQCQKWMQTCDAERKCCEGFSCTLWCKKKLW-NH2 [NV1D2974-NH2] | improved selectivity | – | –
18 | GPQCQKWMQTCDAERKCCEGFSCTLWCKKKLW-OH (cysteine pairing not given here) [NV1D2974] | improved selectivity | – | –
19 | GPQCQKWMQTCDAERKCCEGFVCRLWCKKKLW-NH2 [NV1D2775-NH2] | improved selectivity | – | –
20 | GPQCQKWMQTCDAERKCCEGFVCRLWCKKKLW-OH (cysteine pairing not given here) [NV1D2775] | improved selectivity | – | efficacy in the CFA model / reversal of CFA-induced thermal hyperalgesia [1]: strong efficacy; thermal latencies in the CFA model [1]: close to the cut-off; time at which anti-hyperalgesic effect was first seen post-pump implantation [1]: ≤ 4 h; time by which thermal latency returned to the control level post pump implantation [1]: ≤ 48 h; time of maximum effect, thermal test [1]: 8 h; reversal of CFA-induced tactile allodynia [2]: reversed; time by which tactile threshold returned to the control level post pump implantation [2]: ≤ 48 h; time of maximum effect, tactile test [2]: 8 h; efficacy in the formalin test (flinches) [3]: significant efficacy; analgesia in the carrageenan study (thermal withdrawal latency) [4]: significant analgesia; protection from carrageenan-induced thermal hyperalgesia [4]: fully protected; efficacy in the tail flick test [5]: significant efficacy; efficacy in the hot plate test [6]: strong, dose-dependent efficacy; also recorded: significant analgesia; hotplate latencies at 50 and 55° C. [6]: near cut-off; hotplate thermal latency compared to the PBS control [6]: modest yet significant increase; efficacy in the hot plate test [7]: significant efficacy
21 | GPQCQKWMQTCDAERKCCEGFVCRLWCKKKLWGSAPAPAPAPAPAPAPAPAPAPGSCCNCSSKWCRDHSRCCGR [NV1D3259] | – | 7.26 | –
22 | GPQCQKWMQTCDARRKCCEGFVCRLWCKKKLW-OH (cysteine pairing not given here) [NV1D3006] | improved selectivity | – | –
23 | GPQCQKWMQTCDRERKCCEGFVCTLWCRKKLW-NH2 [NV1D3034-NH2] | improved selectivity | – | –

Row | Substance | selectivity for Nav1.7 compared to recombinant Protoxin-II (human Nav1.6) | pIC50 (human Nav1.7) | also measured
24 | GPQCQKWMQTCDRERKCCEGFVCTLWCRKKLW-NH-butyl [NV1D3034-NH-butyl] | improved selectivity | – | –
25 | GPQCQKWMQTCDRERKCCEGFVCTLWCRKKLW-NH-methyl [NV1D3034-NH-methyl] | improved selectivity | – | efficacy in the CFA model / reversal of CFA-induced thermal hyperalgesia [1]: readily reversed; Thermal MPE % ([1]; sc): 49 ± 17%
26 | GPQCQKWMQTCDRERKCCEGFVCTLWCRKKLW-OH (cysteine pairing not given here) [NV1D3034] | – | – | reversal of CFA-induced thermal hyperalgesia ([1]; sc): completely reversed; efficacy in the formalin test (flinches) [3]: significant efficacy; efficacy in the tail flick test [5]: significant efficacy; efficacy in the hot plate test [7]: significant efficacy
27 | GPQCQKWMQTCDRERKCCEGFVCTLWCRKKLWGGGGSAPAPAPAPAPAPAPAPAPAPAPAPAPAPAPGGGGSGWCGDPGATCGKLRLYCCSGFCDAYTKTCKDKSSA [NV1D3825] | – | 6.71 | –
28 | GPQCQKWMQTCDRERKCCEGFVCTLWCRKKLWGSAPAPAPAPAPAPAPAPAPAPGSCCNCSSKWCRDHSRCC [NV1D3797] | – | 7.04 | –
29 | GPQCQKWMQTCDRERKCCEGFVCTLWCRKKLWGSAPAPAPAPAPAPAPAPAPAPGSCCNCSSKWCRDHSRCCGR [NV1D3798] | – | 7.02 | –
30 | GPQCQKWMQTCDRERKCCEGFVCTLWCRKKLWGSAPAPAPAPAPGSCCNCSSKWCRDHSRCC [NV1D3799] | – | 7.30 | –
31 | GPQCQKWMQTCDRERKCCEGFVCTLWCRKKLWGSAPAPAPAPAPGSCCNCSSKWCRDHSRCCGR [NV1D3800] | – | 7.22 | –
32 | GPQCQKWMQTCDRERKCCEGFVCTLWCRKKLWGSGGGGSAPAPAPAPAPAPAPAPAPAPGGGGSGSCCNCSSKWCRDHSRCC [NV1D3829] | – | 6.91 | –
33 | GPQCQKWMQTCDRERKCCEGFVCTLWCRKKLWGSGGGGSAPAPAPAPAPAPAPAPAPAPGGGGSGSCCNCSSKWCRDHSRCCGR [NV1D3828] | – | 7.06 | –
34 | GPQCQKWMQTCDRERKCCQGFVCTLWCRKKLW-OH (cysteine pairing not given here) [NV1D3388] | improved selectivity | – | –
35 | GPQCQKWMQTCDRNRKCCEGFVCTLWCRKKLW-OH (cysteine pairing not given here) [NV1D3044] | improved selectivity | – | –
36 | GPQCQKWMQTCDRTRKCCEGFVCTLWCRKKLW-NH2 [NV1D3368-NH2] | improved selectivity | – | efficacy in the CFA model / reversal of CFA-induced thermal hyperalgesia [1]: readily reversed
37 | GPQCQKWMQTCDRTRKCCEGFVCTLWCRKKLW-OH (cysteine pairing not given here) [NV1D3368] | improved selectivity | – | reversal of CFA-induced thermal hyperalgesia ([1]; sc): fully reversed
38 | GPRCQKWMQTCDAERKCCEGFVCRLWCKKKLW-OH (cysteine pairing not given here) [NV1D2772] | improved selectivity | – | –
39 | GPSCQKWMQTCDAERKCCEGFVCRLWCKKKLW-OH (cysteine pairing not given here) [NV1D2773] | improved selectivity | – | –
40 | GPSHSNTQTLAKAPEHTGAPAPAPAPAPAPAPAPAPAPQCQKWMQTCDRERKCCEGFVCTLWCRKKLW [NV1D3774] | – | 7.05 | –
41 | GPYCQKWMQTCDANRKCCEGFSCRLWCKKKLW-NH2 [NV1D3586-NH2] | improved selectivity | – | –
42 | GPYCQKWMQTCDANRKCCEGFSCRLWCKKKLW-OH (cysteine pairing not given here) [NV1D3586] | improved selectivity | – | –
43 | GPYCQKWMQTCDSERKCCEGMVCRLWCKKKLL-OH (cysteine pairing not given here) [compound 63955918] | – | – | efficacy in the formalin test (flinches) [3]: less flinches; efficacy in the tail flick test [5]: potent and prolonged analgesia; efficacy in the hot plate test [7]: potent and prolonged analgesia
44 | GPYCQKWMWTCDSERKCCEGMVCRLWCKKKLW-COOH [NV1D12, reference compound] | – | – | selectivity, ratio IC50(Nav1.6)/IC50(Nav1.7) in QPatch (human Nav1.6): about 28 fold
45 | YCQKWMWTCDSERKCCEGMVCRLWCKKKLW-COOH [wild-type Protoxin-II] | – | – | efficacy in rodent models of acute and inflammatory pain [8]: non-efficacious; inhibition of action potential firing in isolated nerves (isolated nerves): inability
